# Where “and” joins values, the source holds several entries; their conditions need not be identical. Equal values may be shown once.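 The compound was tested at five concentrations on cells cultured in 96-well plates, with a 48-hour exposure period. At the GI50, growth is halved. TGI denotes the concentration required for complete inhibition of growth.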
# How the values were obtained:
# Assay in all cases: NCI-60 cell line screen, 48 h
# [1] = system: NCI/ADR-RES ovarian
# [2] = system: HL-60(TB) leukemia
# [3] = system: MCF7 breast
# [4] = system: NCI-H460 lung
# [5] = system: SK-MEL-28 melanoma
# [6] = system: MDA-MB-435
# [7] = system: HOP-62 NSCLC
# [8] = system: SK-MEL-2 melanoma
# [9] = system: A498 renal
# [10] = system: 786-0 renal
Compound,GI50 [1],TGI [1],GI50 [2],TGI [2],GI50 [3] [µM],TGI [3],GI50 [4],TGI [4],GI50 [5],TGI [5],GI50 [6],TGI [6],GI50 [7] [µM],TGI [7] [µM],GI50 [8],TGI [8],GI50 [9],TGI [9],GI50 [10],TGI [10]
[Br][Pb]([c]1ccccc1)([c]1ccccc1)[c]1ccccc1,0.229 µM,0.561 µM,0.19 µM,0.498 µM,0.159,0.303 µM,0.292 µM,0.895 µM,0.175 µM,0.342 µM,0.19 µM,0.435 µM,0.218,0.505,0.218 µM,0.539 µM,0.177 µM,0.4 µM,0.153 µM,0.309 µM
COc1cccc(C2CC(=O)Nc3c2c(C)nn3-c2nc3ccccc3[nH]2)c1OC (configuration not stated),6.67 µM,> 100 µM,2.97 µM,13.8 µM,3.36,> 100 µM,3.09 µM,10.2 µM,9.71 µM,> 87 µM,3 µM,12 µM,2.73,7.78,6.37 µM,32.7 µM,–,8.38 µM,5.51 µM,65 µM
CNC(=O)CCN1CCN(CC/C=C2\c3ccccc3Sc3ccc(Cl)cc32)CC1,7.08 µM,16.5 µM,4.33 µM,> 41.1 µM,4.91,18.9 µM,7.02 µM,21.6 µM,1.76 µM,3.36 µM,1.96 µM,4.91 µM,14.6,32.7,14.1 µM,32.4 µM,6.89 µM,19.9 µM,12.1 µM,27.4 µM
O=[N+]([O-])c1cccc(/C=N/Nc2ccc3ccccc3n2)c1O,–,3.5 µM,–,3.13 µM,–,11.4 µM,–,7.21 µM,–,> 65.6 µM,–,20.1 µM,–,8.9,–,34.8 µM,–,> 66.9 µM,–,12.7 µM
Fc1ccccc1CN1COc2c(cc(Cl)c3cccnc23)C1,–,0.54 µM,–,10.4 µM,–,13.7 µM,–,> 100 µM,–,18.7 µM,–,8.27 µM,–,16.6,–,19.1 µM,–,–,–,21.5 µM
CCCCCCCCCCCCCCCCCc1nc(Cl)nc(Cl)c1Cl,–,> 100 µM,–,> 100 µM,–,> 100 µM,–,> 100 µM,–,> 100 µM,–,> 100 µM,–,> 100,–,–,–,–,–,> 100 µM
O=C(Nc1ccn(C2CC(O)C(COC(c3ccccc3)(c3ccccc3)c3ccccc3)O2)c(=O)n1)c1ccccc1 (configuration not stated),–,5.25 µM,–,5.52 µM,–,8.39 µM,–,4.31 µM,–,12.1 µM,–,5.68 µM,–,18.8,–,7.25 µM,–,–,–,3.51 µM
CC1(C)N=C(N)N=C(N)N1c1ccc(CCCC(=O)Nc2ccc(S(=O)(=O)F)cc2)cc1,> 100 µM,> 100 µM,3.47 µM,> 100 µM,5.23,> 100 µM,0.816 µM,> 100 µM,16 µM,> 100 µM,3.75 µM,> 100 µM,40.9,> 100,46.2 µM,> 100 µM,37.5 µM,> 100 µM,4.97 µM,> 100 µM
CN1C2C=CC(=O)C1C1C(=O)N(c3ccccc3)C(=O)C12 (configuration not stated),17 µM,95.3 µM,2.19 µM,> 100 µM,4.01,16.5 µM,12.7 µM,28.9 µM,3.62 µM,16.7 µM,3.44 µM,22.8 µM,12.4,28.6,8.12 µM,42 µM,15.6 µM,29.5 µM,3.57 µM,15.4 µM
COc1cc2ncn(-c3cc(OCc4ccccc4C(F)(F)F)c(C(N)=O)s3)c2cc1OC,0.15 µM,> 25 µM,0.0361 µM,> 25 µM,0.0282,> 25 µM,0.101 µM,> 25 µM,1.5 µM,> 25 µM,0.0552 µM,0.282 µM,0.197,5.88,0.207 µM,12.3 µM,0.186 µM,5.2 µM,1.56 µM,22.5 µM
O=[N+]([O-])c1ccccc1N=Nc1c(O)[nH]c2c(Cl)cccc12,–,> 60.5 µM,–,> 100 µM,–,> 89.6 µM,–,38.4 µM,–,> 72.4 µM,–,> 100 µM,–,40.9,–,> 100 µM,–,> 68.8 µM,–,31.1 µM
CC1(C)CC(O)CC(C)(C)N1O,–,> 100 µM,> 100 µM,> 100 µM,–,> 100 µM,–,> 100 µM,–,> 100 µM,–,> 100 µM,–,> 100,–,> 100 µM,–,> 100 µM,–,> 100 µM
[O]=[Sn]([CH]1CCCCC1)[CH]1CCCCC1,0.357 µM,1.63 µM,0.248 µM,1.55 µM,0.0849,–,0.389 µM,1.43 µM,0.279 µM,1.14 µM,0.218 µM,0.833 µM,0.407,1.54,0.108 µM,0.284 µM,0.167 µM,0.451 µM,0.214 µM,0.456 µM
COc1ccc2nc3ccccc3c(NCCNCCO)c2c1,5.04 µM,> 89 µM,0.572 µM,1.68 µM,0.363,7.33 µM,0.341 µM,1.92 µM,1.19 µM,3.08 µM,0.474 µM,1.83 µM,0.604,3.99,0.448 µM,2.8 µM,0.431 µM,1.71 µM,0.649 µM,7.55 µM
O=c1cc(-c2ccccc2)oc2ccc(Cl)cc12,–,> 100 µM,–,> 46.4 µM,–,> 100 µM,–,> 100 µM,–,> 78.4 µM,–,> 60.1 µM,–,> 85.8,–,> 100 µM,–,98 µM,–,> 87.8 µM
C=C1C(=O)OC2CC(C)C(/C=C/C(C)=O)=CCC12 (configuration not stated),–,> 100 µM,–,> 100 µM,–,> 100 µM,–,> 100 µM,–,> 100 µM,–,> 100 µM,–,> 100,–,> 100 µM,–,> 100 µM,–,> 100 µM
NNc1c(C(N)=O)c2c(N)ncnc2n1C1OC(CO)C(O)C1O (configuration not stated),0.0179 µM and 0.0374 µM,0.289 µM and 0.754 µM,0.0665 µM and < 0.0118 µM,0.785 µM and 0.125 µM,0.0729,0.179 µM and 1.29 µM,0.0197 µM and 0.14 µM,0.673 µM and 4.45 µM,0.138 µM and 0.0291 µM,0.759 µM and 0.192 µM,0.0346 µM and 0.0483 µM,0.148 µM and 0.265 µM,0.124,–,0.0273 µM and 0.0256 µM,0.0946 µM and 0.307 µM,0.0445 µM and 0.161 µM,0.485 µM and 1.26 µM,0.0354 µM and 0.107 µM,0.405 µM and 1.87 µM
Cc1cc(NC(=O)NCc2ccc(N3C(N)=NC(N)=NC3(C)C)cc2)ccc1S(=O)(=O)F,> 100 µM,> 100 µM,0.716 µM,> 57.5 µM,1.93,> 100 µM,0.252 µM,> 75.6 µM,17.7 µM,> 100 µM,0.456 µM,> 100 µM,12.8,> 100,45 µM,> 100 µM,> 46.4 µM,> 100 µM,5.21 µM,> 100 µM
CCc1ccc2c(c1)C(=O)c1c-2n(CCCN)c(=O)c2cc(OC)c(OC)cc12,1.68 µM,3.22 µM,1.37 µM,3.47 µM,1.58,3.43 µM,1.85 µM,3.86 µM,1.77 µM,3.19 µM,1.97 µM,3.55 µM,1.84,3.29,–,–,–,–,1.68 µM,3.11 µM
COc1ccc(-c2nsc3c2NC(=O)CC3c2ccsc2)cc1 (configuration not stated),0.064 µM,0.278 µM,0.143 µM,20.6 µM,0.32,> 100 µM,0.228 µM,9.49 µM,4.26 µM,> 100 µM,0.0235 µM,0.0644 µM,0.371,> 100,–,–,0.171 µM,0.808 µM,1.25 µM,> 100 µM
CCN(CC)CCOC(COc1cc(C)cc(C)c1)COc1cc(C)cc(C)c1,3.34 µM,14.6 µM,1.94 µM,4.48 µM,2.17,5.33 µM,–,–,1.84 µM,3.77 µM,1.64 µM,3.63 µM,2.72,18.5,11.6 µM,25.8 µM,–,–,3.2 µM,14.5 µM
O=S(=O)(c1ccccc1)N1CCCC(c2ccccc2)CC1 (configuration not stated),–,> 100 µM,–,29.9 µM,–,53.7 µM,–,> 100 µM,–,> 100 µM,–,> 100 µM,–,–,–,> 100 µM,–,> 100 µM,–,> 100 µM
CCOc1ccc2nc(NC(=O)C(=O)C3C(=O)C(CC4C(=O)c5ccccc5C4=O)C(=O)CC3(C)C)sc2c1 (configuration not stated),–,> 100 µM,–,64.2 µM,–,> 100 µM,–,> 100 µM,–,> 100 µM,–,> 100 µM,–,> 100,–,> 100 µM,–,–,–,> 100 µM
